≈ marks a conversion by molar mass, not a printed value.
Tests used:
Streptococcus pneumoniae [1] = experiment: Minimum concentration required for inhibition of Streptococcus pneumoniae was determined.; type: functional
[2] = target: T1, Enoyl-[acyl-carrier-protein] reductase [NADPH] FabI (Staphylococcus aureus, UniProt Q6GI75); experiment: Concentration required for the 50% inhibition of enoyl-ACP reductase from Staphylococcus aureus was determined.
T1 sequence (Q6GI75 whole entry): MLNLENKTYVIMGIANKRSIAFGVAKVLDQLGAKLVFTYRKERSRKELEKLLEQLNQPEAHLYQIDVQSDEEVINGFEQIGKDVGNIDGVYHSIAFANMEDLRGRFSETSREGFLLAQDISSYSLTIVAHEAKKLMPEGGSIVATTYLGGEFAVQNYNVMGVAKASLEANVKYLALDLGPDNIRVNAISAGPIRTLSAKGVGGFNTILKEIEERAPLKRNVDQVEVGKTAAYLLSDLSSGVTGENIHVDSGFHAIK

Staphylococcus aureus [3] = experiment: Minimum concentration required for inhibition of Staphylococcus aureus was determined.; type: functional
Haemophilus influenzae [4] = experiment: Minimum concentration required for inhibition of Haemophilus influenzae was determined.; type: functional
[5] = Concentration required for the 50% inhibition of enoyl-ACP reductase from Haemophilus influenzae was determined.
Enterococcus faecalis [6] = experiment: Minimum concentration required for inhibition of Enterococcus faecalis was determined.; type: functional
Moraxella catarrhalis = experiment: Minimum concentration required for inhibition of Moraxella catarrhalis was determined.; type: functional
[7] = Compound was measured for the inhibition of enoyl-ACP reductase from Staphylococcus aureus
Staphylococcus aureus [8] = experiment: Antibacterial activity was measured against Staphylococcus aureus; type: functional
Haemophilus influenzae [9] = experiment: Antibacterial activity was measured against Haemophilus influenzae; type: functional
Enterococcus faecalis [10] = experiment: Minimum inhibitory concentration against growth of Enterococcus faecalis; type: functional
[11] = Inhibitory concentration against Streptococcus pneumoniae Enoyl-ACP reductase
Streptococcus pneumoniae [12] = experiment: Minimum inhibitory concentration against growth of Streptococcus pneumoniae; type: functional
[13] = Compound was measured for the inhibition of enoyl-ACP reductase from Haemophilus influenzae
Escherichia coli = experiment: Minimum concentration required for inhibition of Escherichia coli AcrAB was determined.; type: functional
Haemophilus influenzae [14] = experiment: Minimum concentration required for the inhibition of Haemophilus influenzae was determined.; type: functional
[15] = Concentration required for the 50% inhibition of Enoyl-ACP reductase from Streptococcus pneumoniae was determined.
Staphylococcus aureus [16] = experiment: Minimum concentration required for the inhibition of Staphylococcus aureus was determined.; type: functional

SMILES	MIC (Streptococcus pneumoniae [1])	IC50 [2]	MIC (Staphylococcus aureus [3])	MIC (Haemophilus influenzae [4])	IC50 [5]	MIC (Enterococcus faecalis [6])	also measured
CC(=O)N(C)Cc1cc(C(=O)N(C)Cc2cc3ccccc3n2C)ccc1N	> 64 µg/mL	6.7 µM	16 µg/mL (≈ 42.3 µM)	> 64 µg/mL	4.7 µM	> 64 µg/mL	
CN(Cc1cc2ccccc2n1C)C(=O)CCc1ccc(N)nc1	> 64 µg/mL	93.7 µM	> 64 µg/mL	> 64 µg/mL	97.4 µM	> 64 µg/mL	
CN1Cc2cc(C(=O)N(C)Cc3cc4ccccc4n3C)ccc2NCC1=O	> 64 µg/mL	21.2 µM	16 µg/mL (≈ 42.5 µM)	> 64 µg/mL	2.5 µM	> 64 µg/mL	
COC(=O)CC1Nc2ccc(C(=O)N(C)Cc3cc4ccccc4n3C)cc2CN(C)C1=O (stereo unspecified)	> 64 µg/mL	16.5 µM	> 64 µg/mL	> 64 µg/mL	6.9 µM	> 64 µg/mL	MIC (Moraxella catarrhalis): 32 µg/mL (≈ 71.3 µM)
CN(Cc1cc2ccccc2n1C)C(=O)/C=C/c1ccc(N)cc1							IC50 [7]: > 11.2 µM; MIC (Staphylococcus aureus [8]): 32 µg/mL (≈ 100 µM); MIC (Haemophilus influenzae [9]): > 64 µg/mL; MIC (Enterococcus faecalis [10]): > 64 µg/mL; IC50 [11]: > 30 µM; MIC (Streptococcus pneumoniae [12]): > 64 µg/mL; IC50 [13]: 9 µM
CC(=O)N(C)Cc1cccc(C(=O)N(C)Cc2cc3ccccc3n2C)c1	> 64 µg/mL	107 µM	> 64 µg/mL	> 64 µg/mL	121 µM	> 64 µg/mL	
CN(Cc1cc2ccccc2n1C)C(=O)c1ccc2c(c1)CN(C)C(=O)[C@H](C(=O)O)N2	> 64 µg/mL	676 µM	> 64 µg/mL	> 64 µg/mL	> 100 µM	> 64 µg/mL	
CN(Cc1cc2ccccc2n1C)C(=O)/C=C/c1ccc(N)nc1	> 64 µg/mL	2.4 µM	0.5 µg/mL (≈ 1.56 µM)	> 64 µg/mL	4.2 µM	> 64 µg/mL	MIC (Escherichia coli): 8 µg/mL (≈ 25 µM); MIC (Moraxella catarrhalis): 4 µg/mL (≈ 12.5 µM)
COC(=O)C[C@H]1Nc2ccc(C(=O)N(C)Cc3cc4ccccc4n3C)cc2CN(C)C1=O	> 64 µg/mL	9.9 µM	> 64 µg/mL	> 64 µg/mL	5.1 µM	> 64 µg/mL	
CN(Cc1cc2ccccc2n1C)C(=O)c1ccc(N)cc1	> 64 µg/mL	16.3 µM	32 µg/mL (≈ 109 µM)	> 64 µg/mL	2.6 µM	> 64 µg/mL	
Oc1cc(Cl)ccc1Oc1ccc(Cl)cc1Cl [TRICLOSAN]							MIC (Haemophilus influenzae [14]): ≤ 0.06 µg/mL; IC50 [15]: > 30 µM; MIC (Staphylococcus aureus [16]): ≤ 0.06 µg/mL

The next lines start with results.

MIC (Streptococcus pneumoniae [1])	IC50 [2]	MIC (Staphylococcus aureus [3])	MIC (Haemophilus influenzae [4])	IC50 [5]	MIC (Enterococcus faecalis [6])	SMILES	also measured
> 64 µg/mL	> 100 µM	> 64 µg/mL	> 64 µg/mL	> 100 µM	> 64 µg/mL	CN(Cc1cc2ccccc2n1C)C(=O)c1ccccc1	
> 64 µg/mL	2.2 µM	2 µg/mL (≈ 6.22 µM)	> 64 µg/mL	4.3 µM	> 64 µg/mL	CN(Cc1cc2ccccc2n1C)C(=O)/C=C/c1cnc(N)nc1	
> 64 µg/mL	14.2 µM	16 µg/mL (≈ 52.4 µM)	> 64 µg/mL	15.2 µM	> 64 µg/mL	CN(Cc1cc2ccccc2n1C)C(=O)/C=C/c1cccnc1	
> 64 µg/mL	> 100 µM	> 64 µg/mL	> 64 µg/mL	19.2 µM	> 64 µg/mL	CN(Cc1cc2ccccc2n1C)C(=O)c1ccc(N)nc1	
